Measurements as given in patent US11649326B2, “Functional, segregated, charged telodendrimers and nanocarriers and methods of making and using same” (The Research Foundation for the State University of New York, priority 2015, dated 2023).

System: HT-29 cells
Assay: Cellular uptake of FITC-BSA by CLSM in HT-29 cells
Format: cell-based
Conditions: 37° C., 3 h, P/T ratio 1/3 by weight
Protocol: Cellular Uptake of Protein-Loaded Telodendrimer Nanoparticles. Green fluorescent FITC-BSA molecules were used to probe the intracellular trafficking of proteins without and with telodendrimer nanoparticles. HT-29 colon cancer cells were incubated with free FITC-BSA and FITC-BSA-loaded telodendrimer nanoparticles, and were imaged by confocal laser scanning microscopy (CLSM). […] Only a small amount of the FITC-BSA molecules loaded in the nanoparticles of the telodendrimers containing four guanidine groups at a P/T ratio of 1/3 by weight could be delivered to the cellular interiors (green fluorescence in FIG. 6b). […] The poor intracellular protein delivery efficiency of the telodendrimers containing four guanidine groups may restrict their applications for intracellular delivery, however, this endows them with the potential to serve as nanocarriers for systemic delivery of proteins such as insulin. […]
Cellular Uptake. The cellular uptake and intracellular trafficking of the protein-incorporated nanoparticles were determined by fluorescence microscopy. […] The slides were mounted with cover slips and cells were imaged with a […] FV1000 laser scanning confocal fluorescence microscope.

Substance: FITC-BSA: Fluorescein isothiocyanate (FITC) labeled bovine serum albumin, fluorescent model protein
- cellular uptake of FITC-BSA: could hardly enter the cells spontaneously
